Test system: rabbit patellar tendon specimen
Experiment: post-denaturation tension test (stiffness) of heat-contracted tendon specimens treated with cross-linking agent
Design: species or system New Zealand rabbit
Conditions: FIG. 7; for stiffness increase when compared to a control without the cross-linking: then 0.1% glutaraldehyde for 15 minutes
Procedure: The achieve the above objectives, the present invention provides an in vitro testing system for developing procedures for treating joint instability problems and loose skin problems. In particular, the testing system performs a tensile test, which is a test wherein a constant rate of elongation is applied on the specimen and the resultant load is measured by a load cell; a viscoelasticity test, which is a test to determine the viscoelastic properties of the specimen; and, calculates stiffness which is the slope of elongation versus load graph. The testing system 110 is illustrated in FIG. 4 and consists of a hydrothermy cabin 120 that is attached to a universal testing machine 130, which is used to perform isothermal and isotonic heating of specimens. The hydrothermy cabin 120 provides a chamber which allows fluid to be circulated around all surfaces of specimen 123 held in between lower grip 124 and upper grip 125. Specimen 123 is secured to lower grip 124 using a fixture which is designed to keep specimen 123 at an angle to mimic anatomical loading while compensating for the offset created by the angle so as to ensure a straight line of loading. Specimen 123 is secured to upper grip 125 by a wedge-shaped fixture which is composed of two universal joints to give rotational freedom to specimen 123 to ensure that a purely uniaxial stress is created on specimen 123. The denaturation of the collagen in specimen 123 is produced by providing to hydrothermy cabin 120 high temperature saline solution 150 contained in reservoir 151 by means of high temperature saline solution supply line 152. […] The materials testing machine 130 performs a tensile test wherein a constant rate of eleongation is applied to specimen 123 and the resultant load is measured by a load cell (not shown); a viscoelasticity test wherein a constant load is applied on specimen 123 and the resultant elongation as a function of time is measured (creep test) or a constant elongation is imposed and the resulting load is measured (stress relaxation test) as a function of time. […]

Compound: O=CCCCC=O [glutaraldehyde]
- stiffness of the specimen (15 minutes of 0.1% glutaraldehyde following heat treatment of either 75° C. or 80° C.): increased
- stiffness increase when compared to a control without the cross-linking (heat treatment 75° C., 0.5 MPa load): more than 220%
- stiffness increase when compared to a control without the cross-linking (heat treatment 80° C., 0.6 MPa load): more than 130%
